Data published in PMC7558026, “Exploring and applying the substrate promiscuity of a C-glycosyltransferase in the chemo-enzymatic synthesis of bioactive C-glycosides” (Nature Communications, 2020).
Residue numbers refer to the chain shown, from its start. Where “and” joins values, the source holds several entries; their conditions need not be identical. Equal entries are not always repeated.

What was measured:
Assay type in all cases: biochemical, Aloe barbadensis
AbCGT = AbCGT (Aloe vera, UniProt A0A7G9P699); test: Glycosyltransferase activity assay, purified AbCGT (wild type) with aglycon acceptors and UDP-Glc; conditions: for conversion rates, O,N,S-glycosylation / conversion rates, di-C-glycosylation / conversion rates, mono-C-glycosylation: aglycon acceptor with UDP-Glc, pH 7.4, 30 °C, up to 12 h, Reaction-1 to -3
Chain of AbCGT (A0A7G9P699 entry or part of it): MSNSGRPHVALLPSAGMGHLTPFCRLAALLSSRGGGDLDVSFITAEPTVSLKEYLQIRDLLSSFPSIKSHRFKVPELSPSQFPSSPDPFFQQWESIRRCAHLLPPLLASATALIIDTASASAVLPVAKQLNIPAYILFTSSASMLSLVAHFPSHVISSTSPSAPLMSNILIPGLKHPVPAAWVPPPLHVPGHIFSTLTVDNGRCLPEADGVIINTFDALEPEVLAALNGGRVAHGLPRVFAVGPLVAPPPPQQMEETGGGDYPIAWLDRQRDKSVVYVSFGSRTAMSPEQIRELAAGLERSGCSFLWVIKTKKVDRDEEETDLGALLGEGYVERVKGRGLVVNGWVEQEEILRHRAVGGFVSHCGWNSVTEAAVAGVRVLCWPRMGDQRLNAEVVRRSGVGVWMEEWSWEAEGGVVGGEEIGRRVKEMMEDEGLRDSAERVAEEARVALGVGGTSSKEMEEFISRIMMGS
Method: Due to the instability of some acceptors in the buffer of pH 11.0, the reactions were performed under the physiological conditions (pH 7.4, 30 °C) to compare the catalytic activities of AbGT27 with different substrates under the same conditions. The reactions were performed at 30 °C for up to 12 h and terminated by the addition of 200 μL of ice-cold methanol. Subsequently, samples were centrifuged at 15,000 × g for 30 min to collect the supernatant, and aliquots were analyzed by HPLC-UV/ESIMS. […] The gradient programs were used for the analysis of the reactions (Supplementary Table 6). The conversion rates of the enzyme reactions were calculated from peak areas of glycosylated products and substrates as analyzed by HPLC. To facilitate inferential statistical analysis, three parallel assays were routinely performed; the means ± SD from triplicate analyses are reported here.

AbCGT V183D = biological target: T1, AbCGT V183D (Aloe vera, UniProt A0A7G9P699, V183D); test: Glycosyltransferase activity of AbCGT variant V183D
T1 sequence (A0A7G9P699 1-470 V183D): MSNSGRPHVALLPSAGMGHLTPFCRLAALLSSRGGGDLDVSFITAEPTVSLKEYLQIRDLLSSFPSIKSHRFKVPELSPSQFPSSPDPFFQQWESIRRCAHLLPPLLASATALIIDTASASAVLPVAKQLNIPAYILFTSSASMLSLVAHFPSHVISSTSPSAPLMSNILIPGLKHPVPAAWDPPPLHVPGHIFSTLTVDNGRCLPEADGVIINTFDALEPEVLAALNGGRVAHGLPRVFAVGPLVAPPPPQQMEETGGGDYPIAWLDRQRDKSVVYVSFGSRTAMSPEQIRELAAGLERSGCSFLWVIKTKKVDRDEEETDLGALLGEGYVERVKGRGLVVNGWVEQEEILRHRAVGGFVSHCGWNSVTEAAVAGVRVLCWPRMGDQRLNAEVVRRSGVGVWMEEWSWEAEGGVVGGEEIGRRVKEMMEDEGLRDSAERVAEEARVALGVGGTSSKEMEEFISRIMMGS
Method: (§1) The reaction mixture contained 0.5 mM sugar donors (1.0 mM for di-glycosylation), 0.25 mM aglycons, 50 mM Tris-HCl (pH 7.4), and 50‒100 μg of purified AbCGT in a final volume of 100 μL. Due to the instability of some acceptors in the buffer of pH 11.0, the reactions were performed under the physiological conditions (pH 7.4, 30 °C) to compare the catalytic activities of AbGT27 with different substrates under the same conditions. The reactions were performed at 30 °C for up to 12 h and terminated by the addition of 200 μL of ice-cold methanol. Subsequently, samples were centrifuged at 15,000 × g for 30 min to collect the supernatant, and aliquots were analyzed by HPLC-UV/ESIMS. HPLC analysis was performed on a Shiseido CAPCELL PAK C18 MG III column (250 mm × 4.6 mm I.D., 5 μm, Shiseido Co., Ltd., Japan) at a flow rate of 1 mL min^‒1. The mobile phase was a gradient elution of solvents A (0.1% formic acid aqueous solution) and B (methanol). The gradient programs were used for the analysis of the reactions (Supplementary Table 6). The conversion rates of the enzyme reactions were calculated from peak areas of glycosylated products and substrates as analyzed by HPLC. To facilitate inferential statistical analysis, three parallel assays were routinely performed; the means ± SD from triplicate analyses are reported here.
(§2) Site-saturation mutagenesis of AbCGT at residue 183 was performed by PCR using pET28a-AbCGT as a template and the corresponding degenerate primers, which are listed in Supplementary Table 5. PCR products were purified and transformed into Trans1-T1 (DE3) E. coli. The sequences of pET28a-AbCGT mutants were confirmed by sequencing, and transformed into Transetta (DE3) E. coli for heterologous expression following protein purification.

AbCGT V183E = biological target: T2, AbCGT V183E (Aloe vera, UniProt A0A7G9P699, V183E); test: Glycosyltransferase activity of AbCGT variant V183E
T2 sequence (A0A7G9P699 1-470 V183E): T1 sequence (A0A7G9P699 1-470 V183D) with D183E
Method: as §1, §2

Structure (SMILES)	conversion rates, O,N,S-glycosylation (AbCGT)	conversion rates, di-C-glycosylation (AbCGT)	conversion rates, mono-C-glycosylation (AbCGT)	WT/yield of C-glycoside(%) (AbCGT; reaction-1)	WT/yield of O-glycoside(%) (AbCGT; reaction-1)	WT/yield of C-glycoside(%) (AbCGT; reaction-2)	WT/yield of O-glycoside(%) (AbCGT; reaction-2)	WT/yield of C-glycoside(%) (AbCGT; reaction-3)	WT/yield of O-glycoside(%) (AbCGT; reaction-3)	V183D/yield of C-glycoside(%) (AbCGT V183D; reaction-1)	V183D/yield of O-glycoside(%) (AbCGT V183D; reaction-1)	V183D/yield of C-glycoside(%) (AbCGT V183D; reaction-2)	V183D/yield of O-glycoside(%) (AbCGT V183D; reaction-2)	V183D/yield of C-glycoside(%) (AbCGT V183D; reaction-3)	V183D/yield of O-glycoside(%) (AbCGT V183D; reaction-3)	V183E/yield of C-glycoside(%) (AbCGT V183E; reaction-1)	V183E/yield of O-glycoside(%) (AbCGT V183E; reaction-1)	V183E/yield of C-glycoside(%) (AbCGT V183E; reaction-2)	V183E/yield of O-glycoside(%) (AbCGT V183E; reaction-2)	V183E/yield of C-glycoside(%) (AbCGT V183E; reaction-3)	further results
Oc1cc(O)cc(OCCCCCCc2ccccc2)c1 [Compound 22]	33% and 31.4% and 25.1%	0%	8.5% and 9.9% and 11.3%	9.6	28.2	11	26.9	9.5	34.6	0	0	0	0	0	0	0	0	0	0	0	V183E/yield of O-glycoside(%) (AbCGT V183E; reaction-3): 0%
Cc1cc(=O)oc2cc(O)ccc12 [Compound 24, 7-hydroxy-4-methylcoumarin]	90% and 92% and 94.8%	0%	0%																		
Cc1cc(O)cc(O)c1C=O [Compound 8]	0%	0%	86.7% and 87.5% and 90.2%																		
CC(=O)c1cc(O)cc(O)c1 [Compound 4, 3,5-dihydroxyacetophenone]	32.6% and 34.9% and 33.8%	0%	0%	1	38.8	0.8	32.4	1.3	32.9	0	0	0	0	0	0	0	0	0	0	0	V183E/yield of O-glycoside(%) (AbCGT V183E; reaction-3): 0%
COc1cc(O)c(C(C)=O)c(OC)c1 [Compound 14]	2% and 1.9%	0%	0%	0	1.5	0	1.6	0	2.8	0	0	0	0	0	0	8	0	7.9	0	7.5	V183E/yield of O-glycoside(%) (AbCGT V183E; reaction-3): 0%
O=C(c1ccc(O)c(O)c1)c1c(O)cc(O)cc1O [Compound 19]	0%	63% and 63.5% and 65.1%	37% and 36.5% and 34.9%																		
